The structures appear in SMILES notation.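 Values below derive from 48-hour exposures of cells grown in 96-well plates, with endpoints linearly interpolated between the two concentrations bracketing the appropriate inhibition level. At the GI50, growth is halved. TGI: concentration producing complete growth inhibition.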 Where only a bound is given, the exact number is not on record here.

Holding throughout (test): NCI anticancer screen, dose series, 48 h
Experiment [1] deals with SK-MEL-2 melanoma.
The test system of experiment [2] is SF-539 CNS.
In experiment [3] the test system is SNB-75 CNS.
In experiment [4] the test system is KM12 colon.
In experiment [5] the test system is 786-0 renal.
The subject of experiment [6] is A549 NSCLC.
Experiment [7] relates to SF-268 CNS.
The test system of experiment [8] is COLO 205 colon.
The test system of experiment [9] is TK-10 renal.
Experiment [10] has as its system HCC-2998 colon.

On to `COc1ccccc1/C=C/C(=O)c1ccccc1`, for which the GI50 in experiment [1] is 12 µM; in experiment [2], 16.4 µM; in experiment [3], 13.1 µM; in [4], 4.04 µM; in experiment [5], 18.3 µM; in experiment [6], 17.9 µM. Further, the GI50 in experiment [7] was 13.1 µM; in [8] it was 16.9 µM; in [9], 21.2 µM; in [10], 17 µM. The TGI was 26.4 µM in experiment [1]; 30.8 µM in experiment [2]; 27.1 µM in experiment [3]; 14.3 µM in experiment [4]; 32.8 µM in experiment [5]; 38.8 µM in [6]. The TGI is 27 µM in [7], 42.1 µM in experiment [8], 36.5 µM in experiment [9] and 31.8 µM in experiment [10].
Consider `Cc1sc2nc3c4ccccc4c(NCCCN(C)C)nn3c(=O)c2c1C`, for which the GI50 in experiment [1] is 20 µM; in [2], 1.65 µM; in experiment [3], 3.46 µM; in experiment [4], 4.84 µM; in [5] it was 9.14 µM; in experiment [6], 2.52 µM. Besides, the GI50 in experiment [7] was 9.66 µM; in [8], 1.43 µM; in experiment [9] it was 13.6 µM; in experiment [10] it was 7.88 µM. The TGI in experiment [1] came out at 39.7 µM; in [2], 3.04 µM; in experiment [3], 16.4 µM; in [4], 17.7 µM; in experiment [5] it was 21.9 µM; in experiment [6], 20.4 µM. The TGI came out at 24.1 µM in experiment [7], 2.79 µM in experiment [8], 28.9 µM in [9] and 20.7 µM in [10].
`CCOP(=O)(OCC)OC(C#N)c1ccc(-c2ccccc2)cc1` (stereo not given): the TGI in [1] was greater than 100 µM; in experiment [2], 38.9 µM; in experiment [3] it was 64.6 µM; in experiment [4], 33.2 µM; in experiment [5], 31.6 µM; in experiment [6], 34.9 µM. Moreover, the TGI in experiment [7] was 44.4 µM; in experiment [8], 32.4 µM; in experiment [9], 89.2 µM; in experiment [10] it was 81.7 µM.
Regarding `CC1C(=O)OCC2=CCN3CCC(OC(=O)C(C)C1(C)O)C23` (stereo not given), the TGI in experiment [1], in experiment [2], in experiment [3], in experiment [4], in [5] and in experiment [6] was greater than 100 µM throughout. The TGI in [7], in [8], in experiment [9] and in experiment [10] was greater than 100 µM in each case.
In the case of `C/C(CCc1ccccc1)=N\NC(N)=S`, the TGI in experiment [1], in experiment [2], in experiment [3], in [4], in experiment [5] and in experiment [6] was greater than 100 µM throughout. Also, the TGI in [7], in experiment [8], in experiment [9] and in [10] was greater than 100 µM throughout.
In the case of `Cc1cc2c(cc1C)N(C(=O)CCl)CCN2C(=O)CCl`, the GI50 in experiment [1] is 1.81 µM; in experiment [2], 1.65 µM; in experiment [3] it was 1.48 µM; in experiment [4], 1.72 µM; in experiment [5], 0.657 µM; in [6], 2.09 µM. Moreover, the GI50 in experiment [7] was 1.82 µM; in experiment [8], 0.484 µM; in [9] it was 1.79 µM; in experiment [10], 1.78 µM. Also, the TGI turned out to be 4.22 µM in experiment [1]; 3.24 µM in experiment [2]; 3.1 µM in [3]; 3.31 µM in [4]; 1.58 µM in [5]; 4.29 µM in [6]. For the same compound, the TGI stood at 3.89 µM in experiment [7], 1.02 µM in experiment [8], 4.76 µM in [9] and 3.3 µM in [10].
`COc1cc(-c2cn(-c3ccc(Cl)c(Cl)c3)c(=O)n2C(C)=O)cc(OC)c1OC`: the GI50 is 10.6 µM in [1]; 2.07 µM in [2]; 9.64 µM in experiment [3]; 12.3 µM in experiment [4]; 2.79 µM in experiment [5]; 15 µM in [6]. Also, the GI50 is 6.92 µM in experiment [7], 7.9 µM in experiment [8], 12.2 µM in experiment [9] and 14.9 µM in [10]. Moreover, the TGI in experiment [1] amounted to 25.3 µM; in experiment [2], 4.29 µM; in experiment [3], 33.8 µM; in experiment [4], 28.6 µM; in experiment [5], 11.5 µM; in [6] it was 41 µM. Further, the TGI in experiment [7] is 30 µM; in experiment [8] it was 21.7 µM; in [9] it was 31 µM; in experiment [10], 29.8 µM.
In the case of `COC(=O)C1=C(C(=O)OC)SC(=CC#CC=C2SC(C(=O)OC)=C(C(=O)OC)S2)S1`, the TGI in [1] was 64.3 µM; in experiment [2] it was 4.86 µM; in [3], 19.3 µM; in [4], greater than 100 µM; in [5], 18.2 µM; in [6] it was greater than 100 µM. Also, the TGI in [7] was greater than 60.1 µM; in experiment [8] it was greater than 54.9 µM; in experiment [9] it was 23.9 µM; in experiment [10], greater than 100 µM.
Take `CCn1c2ccc(O)cc2c2c(C)c3c[n+](C)ccc3c(C)c21`: the GI50 in experiment [1] is 3.91 µM; in experiment [2] it was 0.873 µM; in [3] it was 1.18 µM; in experiment [4], 2 µM; in [5] it was 0.52 µM; in [6], 3.81 µM. Also, the GI50 in experiment [7] is 0.122 µM; in experiment [8], 3.03 µM; in [9], 24.3 µM; in experiment [10], 3.9 µM. The TGI in experiment [1] is 20.1 µM; in experiment [2], 14.8 µM; in experiment [3] it was 35.8 µM; in experiment [4], 23.7 µM; in [5], greater than 100 µM; in experiment [6], greater than 100 µM. Besides, the TGI in experiment [7] is 4.33 µM; in experiment [8] it was 17.3 µM; in experiment [9], greater than 100 µM; in experiment [10], 23.4 µM.

The record behind these values is PubChem BioAssay (NCI).
